Data on eleven compounds can be found in US12110293B2, “Substituted triazolo quinoxaline derivatives” (GRÜNENTHAL GMBH, priority 2018, dated 2024).

The experiment addresses T1, glucocorticoid receptor (Homo sapiens, UniProt P04150).
T1 construct: expressed in transfected cells
T1 sequence (P04150 524-758 limits assumed): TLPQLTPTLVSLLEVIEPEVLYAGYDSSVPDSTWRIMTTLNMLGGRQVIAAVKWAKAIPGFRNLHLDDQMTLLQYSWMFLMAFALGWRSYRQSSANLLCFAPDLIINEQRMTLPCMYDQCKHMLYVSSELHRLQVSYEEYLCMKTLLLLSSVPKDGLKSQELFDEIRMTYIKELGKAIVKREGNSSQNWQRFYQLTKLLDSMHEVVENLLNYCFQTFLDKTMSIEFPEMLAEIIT
Nature of the experiment: Agonistic mode of action on the glucocorticoid receptor (CHO-Gal4/GR luciferase reporter cell line). It is filed as cell-based. To be noted: range class observed in the agonistic assay or the antagonistic assay (CHO-Gal4/GR reporter cells); table does not say which mode applies per example. In short, it runs like this:
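CHO cells stably carrying GAL4 DBD–GR ligand-binding-domain fusion and GAL4-UAS firefly luciferase reporter, 5000 cells/well grown 24 h, then compounds added in Opti-MEM at 8 half-log concentrations from 10 μM to 0.003 μM (0.5% DMSO), quadruplicates. Agonist-induced luminescence read on FLIPR Tetra; EC50 calculated.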
(In a reporter assay the amount or activity of a reporter protein is the signal.)

With `Cc1nnc2n1-c1c(ccc(-c3cc(F)cc4c3ccn4C)c1C(F)(F)F)NC2(C)C` [Example 522, 8-(6-Fluoro-1-methyl-1H-indol-4-yl)-1,4,4-trimethyl-9-(trifluoro-methyl)-5H-[1,2,4]triazolo[4,3-a] quinoxaline], the IC50 or EC50 (agonist or antagonist mode not specified) was in the range of 100 to 1000 nM.

Compound `CCn1cc2c(-c3c(F)cc4c(c3F)-n3c(C)nnc3C(C)(C)N4)cccc2n1` [Example 237, 8-(2-Ethyl-2H-indazol-4-yl)-7,9-difluoro-1,4,4-trimethyl-5H-[1,2,4]triazolo[4,3-a]quinoxaline] yielded an IC50 or EC50 (agonist or antagonist mode not specified) of 1000 to 15000 nM.

`COCCn1c(C(F)(F)F)cc2c(-c3c(OC(F)F)cc4c(c3F)-n3c(C)nnc3C(C)(C)N4)cccc21` [Example 259, 7-(Difluoro-methoxy)-9-fluoro-8-[1-(2-methoxy-ethyl)-2-(trifluoromethyl)-1H-indol-4-yl]-1,4,4-trimethyl-5H-[1,2,4]triazolo[4,3-a]quinoxaline] came in with an IC50 or EC50 (agonist or antagonist mode not specified) of 1000 to 15000 nM.

`Cc1cc(-c2c(F)cc3c(c2C(F)(F)F)-n2c(C)nnc2C(C)(C)N3)c2ccn(S(C)(=O)=O)c2c1` [Example 476, 7-Fluoro-1,4,4-trimethyl-8-(6-methyl-1-methylsulfonyl-1H-indol-4-yl)-9-(trifluoromethyl)-5H-[1,2,4]triazolo [4,3-a]quinoxaline]: the IC50 or EC50 (agonist or antagonist mode not specified) lay within 100 to 1000 nM.

`COCCn1c(C(F)(F)F)cc2c(-c3c(F)cc4c(c3F)-n3c(C)nnc3C(C)(C)N4)cccc21` [Example 289, 7,9-Difluoro-8-[1-(2-methoxy-ethyl)-2-(trifluoromethyl)-1H-indol-4-yl]-1,4,4-trimethyl-5H-[1,2,4]triazolo[4,3-a]quinoxaline] showed an IC50 or EC50 (agonist or antagonist mode not specified) of 1000 to 15000 nM.

`COc1c(-c2cc(F)cc3c(C4CC4)c[nH]c23)c(F)cc2c1-n1c(C)nnc1C(C)(C)N2` [Example 483, 8-(3-Cyclopropyl-5-fluoro-1H-indol-7-yl)-7-fluoro-9-methoxy-1,4,4-trimethyl-5H-[1,2,4]triazolo[4,3-a] quinoxaline] showed an IC50 or EC50 (agonist or antagonist mode not specified) below 100 nM.

Compound `Cc1cc2c(c(F)c1-c1cccc3c1ccn3CC(F)F)-n1c(C)nnc1C(C)(C)N2` [Example 392, 8-[1-(2,2-Difluoro-ethyl)-1H-indol-4-yl]-9-fluoro-1,4,4,7-tetramethyl-5H-[1,2,4]triazolo[4,3-a]quinoxaline] came in with an IC50 or EC50 (agonist or antagonist mode not specified) of 1000 to 15000 nM.

Consider `Cc1n[nH]c2c(-c3c(F)cc4c(c3F)-n3c(C)nnc3C(C)(C)N4)cccc12` [Example 354, 7,9-Difluoro-1,4,4-trimethyl-8-(3-methyl-1H-indazol-7-yl)-5H-[1,2,4]triazolo[4,3-a]quinoxaline], for which the IC50 or EC50 (agonist or antagonist mode not specified) lay in the range of 100 to 1000 nM.

Turning to `Cc1c(-c2cc(F)cc3c2cnn3CC(F)F)c(OC(F)(F)F)cc2c1-n1c(C)nnc1C(C)(C)N2` [Example 469, 8-[1-(2,2-Difluoro-ethyl)-6-fluoro-1H-indazol-4-yl]-1,4,4,9-tetramethyl-7-(trifluoromethyloxy)-5H-[1,2,4]triazolo[4,3-a]quinoxaline], the IC50 or EC50 (agonist or antagonist mode not specified) was in the range of 100 to 1000 nM.

In turn, `COCCn1ccc2c(-c3c(OC)cc4c(c3C(F)(F)F)-n3c(C)nnc3C(C)(C)N4)cccc21` [Example 334, 7-Methoxy-8-[1-(2-methoxy-ethyl)-1H-indol-4-yl]-1,4,4-trimethyl-9-(trifluoromethyl)-5H-[1,2,4]triazolo[4,3-a]quinoxaline] showed an IC50 or EC50 (agonist or antagonist mode not specified) of 1000 to 15000 nM.

In the case of `COCCn1ccc2c(-c3c(F)cc4c(c3C(F)F)-n3c(C)nnc3C(C)(C)N4)cc(F)cc21` [Example 402, 9-(Difluoro-methyl)-7-fluoro-8-[6-fluoro-1-(2-methoxy-ethyl)-1H-indol-4-yl]-1,4,4-trimethyl-5H-[1,2,4]triazolo[4,3-a]quinoxaline], the IC50 or EC50 (agonist or antagonist mode not specified) fell in the range of 100 to 1000 nM.
